Results reported in PubChem BioAssay (NCI).
Several values for one entry are separate records, joined by “and”; a condition that tells them apart may be missing. Identical values can stand only once.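 Compound exposure: 48 hours, 5 concentrations, 96-well plates. Here, GI50 denotes the concentration required for 50% inhibition of growth. TGI marks complete inhibition of growth.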

Experiments:
Assay in all cases: DTP human tumour cell line panel, 48 h
[1] = system: UACC-62 melanoma
[2] = system: MOLT-4 leukemia
[3] = system: LOX IMVI melanoma
[4] = system: SR leukemia
[5] = system: CCRF-CEM leukemia
[6] = system: RPMI-8226 leukemia
[7] = system: SNB-75 CNS
[8] = system: LXFL 529 NSCLC
[9] = system: HOP-92 NSCLC
[10] = system: K-562 leukemia
[11] = system: HL-60(TB) leukemia
[12] = system: UACC-257 melanoma
[13] = system: KM20L2 colon
[14] = system: SN12C renal
[15] = system: HT29 colon
[16] = system: SW-620 colon
[17] = system: HOP-18 NSCLC
[18] = system: HCT-15 colon
[19] = system: SK-MEL-2 melanoma
[20] = system: SNB-19 CNS
[21] = system: M14 melanoma
[22] = system: OVCAR-3 ovarian
[23] = system: HCC-2998 colon
[24] = system: OVCAR-4 ovarian
[25] = system: OVCAR-8 ovarian
[26] = system: CAKI-1 renal
[27] = system: OVCAR-5 ovarian
[28] = system: HCT-116 colon
[29] = system: MALME-3M melanoma
[30] = system: M19-MEL melanoma
[31] = system: UO-31 renal
[32] = system: COLO 205 colon
[33] = system: HOP-62 NSCLC
[34] = system: DMS 273 small cell lung
[35] = system: KM12 colon
[36] = system: NCI-H460 lung
[37] = system: NCI-H226 lung
[38] = system: SF-295 CNS
[39] = system: SF-539 CNS
[40] = system: SK-MEL-5 melanoma
[41] = system: NCI-H522 lung
[42] = system: A498 renal
[43] = system: SF-268 CNS
[44] = system: IGROV1 ovarian
[45] = system: ACHN renal
[46] = system: SNB-78 CNS
[47] = system: RXF 393 renal
[48] = system: SK-OV-3 ovarian
[49] = system: U251 CNS
[50] = system: TK-10 renal
[51] = system: 786-0 renal
[52] = system: DLD-1 colon
[53] = system: SK-MEL-28 melanoma
[54] = system: A549 NSCLC
[55] = system: DMS 114 small cell lung
[56] = system: EKVX NSCLC
[57] = system: NCI-H23 lung
[58] = system: XF 498 CNS

## N#Cc1c(-c2ccccc2)cc(-c2ccccc2)n(C2OC(CO)C(O)C(O)C2O)c1=O (stereo not drawn)
[1]
  TGI: > 100 µM
[2]
  TGI: > 100 µM
[3]
  TGI: > 100 µM
[4]
  TGI: > 100 µM
[5]
  TGI: > 100 µM
[6]
  TGI: > 100 µM
[7]
  GI50: 34.4 µM and 14.5 µM
  TGI: > 100 µM and 80.9 µM
[8]
  TGI: > 100 µM
[9]
  GI50: 88.4 µM and 31.9 µM
  TGI: > 100 µM
[10]
  TGI: > 100 µM
[11]
  TGI: > 100 µM

## O=C(Nc1cccc(C(F)(F)F)c1)c1cc(-c2ccccc2)nc(=S)[nH]1
[12]
  TGI: > 100 µM
[3]
  TGI: > 100 µM
[13]
  TGI: > 100 µM
[14]
  TGI: > 100 µM
[15]
  TGI: > 100 µM
[4]
  TGI: > 100 µM
[16]
  TGI: > 100 µM
[17]
  TGI: > 100 µM
[18]
  TGI: > 100 µM
[19]
  TGI: > 100 µM
[20]
  TGI: > 100 µM
[21]
  TGI: > 100 µM
[22]
  TGI: > 100 µM
[23]
  TGI: > 100 µM
[24]
  TGI: > 100 µM
[25]
  TGI: > 100 µM
[26]
  TGI: > 100 µM
[8]
  TGI: > 100 µM
[27]
  TGI: > 100 µM
[28]
  TGI: > 100 µM
[29]
  TGI: > 100 µM
[30]
  TGI: > 100 µM
[31]
  TGI: > 100 µM
[9]
  TGI: > 100 µM
[32]
  TGI: > 100 µM
[33]
  TGI: > 100 µM
[34]
  TGI: > 100 µM
[35]
  TGI: > 100 µM
[11]
  TGI: > 100 µM
[36]
  TGI: > 100 µM
[37]
  TGI: > 100 µM
[38]
  TGI: > 100 µM

## C=CCC(C)(C(=O)NCCC)C(=O)c1ccccc1O (stereo not drawn)
[12]
  TGI: > 100 µM
[1]
  TGI: > 100 µM
[2]
  TGI: > 100 µM
[39]
  TGI: > 100 µM
[40]
  TGI: > 100 µM
[13]
  TGI: > 100 µM
[14]
  TGI: > 100 µM
[41]
  TGI: > 100 µM
[42]
  TGI: > 100 µM
[43]
  TGI: > 100 µM
[4]
  TGI: > 100 µM
[44]
  TGI: > 100 µM
[5]
  TGI: > 100 µM
[16]
  TGI: > 100 µM
[17]
  TGI: > 100 µM
[18]
  TGI: > 100 µM
[45]
  TGI: > 100 µM
[19]
  TGI: > 100 µM
[20]
  TGI: > 100 µM
[21]
  TGI: > 100 µM
[46]
  TGI: > 100 µM
[47]
  TGI: > 100 µM
[48]
  TGI: > 100 µM
[49]
  TGI: > 100 µM
[6]
  TGI: > 100 µM
[22]
  TGI: > 100 µM
[23]
  TGI: > 100 µM
[7]
  TGI: > 100 µM
[50]
  TGI: > 100 µM
[24]
  TGI: > 100 µM
[51]
  TGI: > 100 µM
[25]
  TGI: > 100 µM
[26]
  TGI: > 100 µM
[8]
  TGI: > 100 µM
[52]
  TGI: > 100 µM
[28]
  TGI: > 100 µM
[29]
  TGI: > 100 µM
[30]
  TGI: > 100 µM
[31]
  TGI: > 100 µM
[32]
  TGI: > 100 µM
[33]
  TGI: > 100 µM
[10]
  TGI: > 100 µM
[34]
  TGI: > 100 µM
[53]
  TGI: > 100 µM
[35]
  TGI: > 100 µM
[54]
  TGI: > 100 µM
[11]
  TGI: > 100 µM
[36]
  TGI: > 100 µM
[55]
  TGI: > 100 µM
[37]
  TGI: > 100 µM

## O=C1CC(c2c[nH]c3ccccc23)C(=O)N1c1ccccc1 (stereo not drawn)
[12]
  TGI: > 100 µM
[1]
  TGI: > 100 µM
[2]
  TGI: > 100 µM
[56]
  TGI: > 100 µM
[39]
  TGI: > 100 µM
[40]
  TGI: > 100 µM
[13]
  TGI: > 100 µM
[42]
  TGI: > 100 µM
[15]
  TGI: > 100 µM
[44]
  TGI: > 100 µM
[5]
  TGI: > 100 µM
[16]
  TGI: > 100 µM
[18]
  TGI: > 100 µM
[45]
  TGI: > 100 µM
[19]
  TGI: > 100 µM
[21]
  TGI: > 100 µM
[46]
  TGI: > 100 µM
[47]
  TGI: > 100 µM
[48]
  TGI: > 100 µM
[49]
  TGI: > 100 µM
[6]
  TGI: > 100 µM
[22]
  TGI: > 100 µM
[23]
  TGI: > 100 µM
[7]
  TGI: > 100 µM
[57]
  TGI: > 100 µM
[50]
  TGI: > 100 µM
[24]
  TGI: > 100 µM
[51]
  TGI: > 100 µM
[25]
  TGI: > 100 µM
[26]
  TGI: > 100 µM
[8]
  TGI: > 100 µM
[27]
  TGI: > 100 µM
[52]
  TGI: > 100 µM
[28]
  TGI: > 100 µM
[29]
  TGI: > 100 µM
[30]
  TGI: > 100 µM
[31]
  TGI: > 100 µM
[33]
  TGI: > 100 µM
[10]
  TGI: > 100 µM
[34]
  TGI: > 100 µM
[53]
  TGI: > 100 µM
[35]
  TGI: > 100 µM
[58]
  TGI: > 100 µM
[54]
  TGI: > 100 µM
[11]
  TGI: > 100 µM
[36]
  TGI: > 100 µM
[37]
  TGI: > 100 µM
[38]
  TGI: > 100 µM

## Oc1ccccc1C=Nc1ccccc1N=Cc1ccccc1O
[12]
  TGI: > 100 µM
[2]
  TGI: > 100 µM
[3]
  TGI: > 100 µM
[56]
  TGI: > 100 µM
[39]
  TGI: > 100 µM
[40]
  TGI: > 100 µM
[13]
  TGI: > 100 µM
[14]
  TGI: > 100 µM
[41]
  TGI: 45.7 µM
[15]
  TGI: > 100 µM
[43]
  TGI: > 100 µM
[4]
  TGI: > 100 µM
[44]
  TGI: > 100 µM
[5]
  TGI: > 100 µM
[16]
  TGI: > 100 µM
[18]
  TGI: > 100 µM
[45]
  TGI: > 100 µM
[20]
  TGI: > 100 µM
[21]
  TGI: > 100 µM
[48]
  TGI: > 100 µM
[49]
  TGI: > 100 µM
[6]
  TGI: > 100 µM
[22]
  TGI: > 100 µM
[23]
  TGI: > 100 µM
[57]
  TGI: > 100 µM
[50]
  TGI: > 100 µM
[51]
  TGI: > 100 µM
[25]
  TGI: > 100 µM
[8]
  TGI: > 100 µM
[28]
  TGI: > 100 µM
[29]
  TGI: > 100 µM
[30]
  TGI: > 100 µM
[32]
  TGI: > 100 µM
[33]
  TGI: > 100 µM
[10]
  TGI: > 100 µM
[34]
  TGI: > 100 µM
[53]
  TGI: > 100 µM
[35]
  TGI: > 100 µM
[58]
  TGI: > 100 µM
[54]
  TGI: > 100 µM
[11]
  TGI: 81.5 µM
[36]
  TGI: > 100 µM
[55]
  TGI: > 100 µM
[37]
  TGI: > 100 µM
[38]
  TGI: > 100 µM
